Key:
cyt c/TOCL complexes = molecular target: T1, cyt c/TOCL complexes (Equus caballus, UniProt P00004); test: Peroxidase activity of cyt c/TOCL complexes, H2O2-induced oxidation of Amplex Red to resorufin; assay type: biochemical; details: cyt c 1 μM, CL/cyt c 25:1, 50 μM Amplex Red, 50 μM H2O2, 20 min
T1 construct: purchased Sigma (St. Louis, Mo.)
Experimental: Conditions: cyt c (1 μM), H2O2 (50 μM), Amplex Red (50 μM). Experiments were performed in 20 mM HEPES buffer (pH 7.4) containing DTPA (100 μM), cyt c was incubated with DOPC/TOCL liposomes (1:1) at a ratio of TOCL:cyt c of 25:1.
Peroxidase activity of cyt c was assessed by oxidation of Amplex Red, etoposide or TLCL (tetra-linoleoyl-cardiolipin). Measurements of Amplex Red oxidation were performed using fluorescence of its oxidation product resorufin. Cyt c (1 μM) was incubated with tetra-oleoyl-cardiolipin (TOCL) containing liposomes (CL/cyt c ratio 25:1). Then 50 μM Amplex Red and 50 μM H2O2 were added, and the incubation proceeded for an additional 20 min. Fluorescence was detected by employing a “Fusion α” universal microplate analyzer and by using an excitation wavelength of 535 nm and an emission wavelength of 590 nm. EPR spectra of etoposide phenoxyl radicals were recorded at 25° C. in gas permeable Teflon tubings (inner diameter, 0.8 mm; thickness, 0.013; Alpha Wire Corp., Elizabeth, N.J.). Volume of samples was 60 μL. The spectra were recorded under the following conditions: 335.3 mT, center field; 2 mT, sweep width; 0.04 mT, field modulation; 10 mW, microwave power; 0.1 s, time constant; 2 min, time scan. The time course of the etoposide radical EPR signal was obtained by repeated scanning of the field (0.15 mT, sweep width; 335.3 mT, center field) corresponding to a part of the EPR signal. Peroxidase activity of mitochondria was determined by the formation of resorufin from Amplex Red. Isolated mouse liver mitochondria (0.6 mg/ml) were incubated in the presence of 100 μM Amplex Red and 2 mM tert-butyl hydroperoxide (tBOOH). After incubation at room temperature for 20 min, fluorescence of resurufin was measured.
(§1) Small unilamellar liposomes were prepared from dioleoylphosphatidylcholine (DOPC) and TOCL (1:1 ratio) or DOPC and TLCL (4:1 ratio) by sonication in HEPES buffer (20 mM with 100 μM diethylene triamine pentaacetic acid (DTPA) (pH 7.4) 3×60 sec, relaxation time 2 min, 4° C.).
Peroxidase activity of cyt c was assessed by oxidation of Amplex Red, etoposide or TLCL as described above.

cyt c/TLCL = molecular target: T2, cyt c/TLCL (Equus caballus, UniProt P00004); test: cyt c/H2O2-induced TLCL (tetra-linoleoyl-cardiolipin) peroxidation, ESI-MS; assay type: biochemical; details: for inhibition of cyt c/H2O2-induced oxidation of TLCL: cyt c 4 μM, TLCL 100 μM, H2O2 80 μM, 10 min, 37° C.; for oxidation of TLCL at ratio of cyt c to compound of 1:20: cyt c:compound 1:20
T2 construct: purchased Sigma (St. Louis, Mo.)
Experimental: For measurement of TLCL oxidation, cyt c (4 μM) was incubated with TLCL (100 μM) containing liposomes (TLCL/cyt c ratio-20:1) and H2O2 (80 μM) for 10 min at 37° C. The reaction was stopped by catalase (150 units/ml) and CL was extracted using Folch procedure^37. Analysis of (hydroperoxy- and hydroxy-) oxidized phospholipid species was performed as described^30. TLCL and its oxidized molecular species were extracted by the Folch procedure^37 and separated on a normal phase column (Luna 3 μm Silica 100A, 150×2 mm, Phenomenex, Torrance Calif.). […] The ESI probe was operated at a voltage differential of 3.5-5.0 kV in the negative ion mode. Capillary temperature was maintained at 150° C. Using range zoom (200-2000 m/z) in negative ion mode, the centroid spectra were acquired.
as §1

mouse embryonic cells [1] = test: Superoxide production in mouse embryonic cells (dihydroethidium, flow cytometry); assay type: cell-based; details: cells with or without radiation treatment (10 Gy); 2.5 and 5 μM, 18 hrs
Experimental: Cells were γ-irradiated at a dose of 10 Gy and then incubated with different concentrations of TPP-IOA or TPP-ISA (2.5 and 5 μM) for 18 hrs. To estimate superoxide generation, cells were incubated with 5 μM of dihydroethidium (DHE) for 30 min at 37° C. Collected cells were re-suspended in phosphate buffered saline (PBS) and fluorescence of 2-hydroxyethidium was analyzed using FACScan supplied with CellQuest software. Data are means±S.D., n=3. *p<0.01 vs. control cells (without any treatment).
A superoxide-meditated oxidation-sensitive fluorogenic dye, dihydroethidium (DHE), was utilized for assessments of superoxide production. Briefly, cells were incubated with 5 μM of DHE for 30 min. Cells were collected by trypsinization and re-suspended in PBS. The fluorescence of 2-hydroxyethidium was measured using a FACScan flow cytometer (BD Biosciences, San Jose, Calif.) supplied with the CellQuest software. Mean fluorescence intensity from 10,000 cells was acquired using a 585/42-nm band-pass filter.

[2] = tested on: caspase-3 activation in S-100 from mouse embryonic cells; test: Cell-free apoptosis system (S100): caspase-3 activation by exogenous cyt c/dATP; assay type: biochemical; details: S100, 1 mM dATP, 1 μM cyt c, 90 min
Experimental: The cytosol extracts (S100) of mouse embryonic cells were obtained as described previously^38 with minor modifications. Briefly, the cells were washed twice in cold phosphate-buffered saline, pH 7.4, and the resulting pellet was resuspended in buffer containing 25 mM HEPES-KOH, pH 7.0, 10 mM KCl, 1.5 mM MgCl2, 1 mM EDTA, 1 mM EGTA, 1 mM DTT, 0.1 mM phenylmethylsulfonyl fluoride, 0.05% digitonin, and 1% protease inhibitor mixture for 2 min at 4° C. Cells were centrifuged at 4° C. for 10 min at 10,000×g. The resulting supernatant was further centrifuged at 4° C. for 50 min at 100,000×g. The supernatant was collected as S-100 and kept at −80° C. until further use. For caspase-3 activation, S100 (5 μg of protein/μl) was incubated with 1 mM dATP and 1 μM cyt c for 90 min at 37° C. The caspase-3 activity was evaluated using Enzchek caspase-3 assay kit as described in the manufacturer's manual (Invitrogen, Carlsbad, Calif.).

mouse embryonic cells [3] = test: Clonogenic survival of mouse embryonic cells after γ-irradiation; assay type: cell-based; details: 2.5 μM added 30 min post γ-irradiation; single-hit multi-target model; untreated 1.33±0.08
Experimental: Cells were plated in 35-mm dishes with 2 ml culture medium at the appropriate density (between 100 and 1000 cells per dish). TPP-ISA (2.5 μM) or TPP-IOA (2.5 μM) was added to the cell culture 30 min post γ-irradiation. Medium containing TPP-ISA or TPP-IOA was replaced with fresh complete culture medium after 4 hrs. Colonies were fixed and stained with 0.25% crystal violet and 10% formalin (35% v/v) in 80% methanol for 30 min after a 7-day incubation, and those with >50 cells were scored as survivors. The surviving fraction was calculated as the plating efficiency (=number of colonies counted/number of cells seeded×100%) of samples relative to that of control. The data were fitted to a single-hit multi-target model. D0—the dose needed to reduce cell surviving fraction to 37% (1/e)—was estimated from the curves fitted to evaluate the radiomitigative effects of TPP-ISA and TPP-IOA.

C57BL/6NTac female mice = test: Survival of mice after 9.25 Gy total body irradiation, cesium irradiator; assay type: in vivo, mouse; details: for radiomitigative effect (survival): i.p. 5 mg per kg, 10 min after irradiation

T2 sequence (P00004 2-105 limits assumed): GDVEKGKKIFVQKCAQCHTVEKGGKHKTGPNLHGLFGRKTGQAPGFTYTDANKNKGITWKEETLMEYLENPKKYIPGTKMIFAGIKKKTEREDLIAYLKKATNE
T1 sequence (P00004 2-105 limits assumed, one chain of several): as the sequence (P00004 2-105 limits assumed) above

SMILES | inhibition of peroxidase activity of cyt c/TOCL complexes (Amplex Red oxidation) (cyt c/TOCL complexes) | inhibition of cyt c/H2O2-induced oxidation of TLCL (cyt c/TLCL) | oxidation of TLCL at ratio of cyt c to compound of 1:20 (cyt c/TLCL) | effect on superoxide production (mouse embryonic cells [1]) | caspase activation caused by exogenously added cyt c [2] | D0, the dose needed to reduce cell surviving fraction to 37% (1/e) (mouse embryonic cells [3]) | P (two-sided log-rank test), TPP-IOA versus TPP-ISA (C57BL/6NTac female mice; 5 mg per kg 10 min after irradiation) | radiomitigative effect (survival) (C57BL/6NTac female mice)
CCCCCCC(C/C=C\CCCCCCCC(=O)OCCC[P+](c1ccccc1)(c1ccccc1)c1ccccc1)n1ccnc1.[Br-] (stereo not drawn) [TPP-IOA] | as effective as non-conjugated ISA and IOA | inhibited cyt c/H2O2-induced oxidation of TLCL in a concentration-dependent manner | completely blocked | neither TPP-IOA nor TPP-ISA had any effect | completely insensitive | 1.71±0.05 | 0.6389 | strong radiomitigative effect
CCCCCCC(CCCCCCCCCCC(=O)OCCC[P+](c1ccccc1)(c1ccccc1)c1ccccc1)n1ccnc1.[Br-] (stereo not drawn) [TPP-ISA] | as effective as non-conjugated ISA and IOA | inhibited cyt c/H2O2-induced oxidation of TLCL in a concentration-dependent manner | completely blocked | neither TPP-IOA nor TPP-ISA had any effect | completely insensitive | 1.67±0.06 | – | strong radiomitigative effect

Source: patent US9365597B2, “Mitochondria-targeted inhibitors of cytochrome c peroxidase for protection from apoptosis” (Brock University, priority 2011, dated 2016)
